Read-outs that look alike come from different tables or passages of the source.
What was measured:
[1] = Absolute bioavailability, 3 mg IV versus 3 mg oral; type: in vivo; settings: human, plasma
aldosterone synthase = molecular target: T1, aldosterone synthase (Homo sapiens, UniProt P19099); test: MAD study: urine aldosterone and tetrahydroaldosterone; type: in vivo; settings: mean
T1 construct: synthesized in the adrenal cortex by aldosterone synthase; endogenous in cells; host or cells: adrenal cortex of healthy human subjects (in vivo, oral dosing)
T1 sequence (P19099 25-503): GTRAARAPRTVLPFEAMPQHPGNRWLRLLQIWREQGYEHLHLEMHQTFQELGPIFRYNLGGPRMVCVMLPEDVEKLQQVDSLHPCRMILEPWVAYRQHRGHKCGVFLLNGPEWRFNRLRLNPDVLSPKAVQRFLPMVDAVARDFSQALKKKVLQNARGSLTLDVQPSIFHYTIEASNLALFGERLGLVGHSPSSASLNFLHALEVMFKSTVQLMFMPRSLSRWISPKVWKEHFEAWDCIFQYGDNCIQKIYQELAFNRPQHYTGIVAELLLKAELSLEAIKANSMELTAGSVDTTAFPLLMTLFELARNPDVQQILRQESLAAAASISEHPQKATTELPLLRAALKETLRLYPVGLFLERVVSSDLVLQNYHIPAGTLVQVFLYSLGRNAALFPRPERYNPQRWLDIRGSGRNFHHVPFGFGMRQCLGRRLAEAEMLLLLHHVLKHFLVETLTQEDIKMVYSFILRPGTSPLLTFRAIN
Excerpt: (§1) For each subject, the study consisted of: • A screening period of up to 28 days; • A 5-day inpatient run-in period during which subjects adhered to a controlled, standardized diet and underwent baseline PD assessments; • A 15-day inpatient treatment period, during which subjects received (R)-compound 1 or placebo once daily for 10 days while adhering to a controlled, standardized diet, followed by PK and PD sampling over an additional 5 days; and • A follow-up visit 3 days (1 day) after discharge from the clinical unit. • A cortisol stimulation test (Cohorts 1 and 2 only) and standing aldosterone assessment (all cohorts) were performed on Days 1 and 10. Serial blood samples for PK and PD were obtained prior to and at specified time points over 24 hours after dosing on Day 1 as well as prior to and at specified time points over 120 hours after dosing on Day 10. In addition, blood samples for PK were collected prior to dosing on Days 8 and 9. Urine for PK and PD measurements was collected over 24 hours starting just prior to dosing on Day 1 as well as over 120 hours starting just prior to dosing on Day 10.
Urine PD measures included concentrations of • Aldosterone; • Cortisol (free and total); and • Tetrahydroaldosterone.
For analysis, the urine PD concentrations were converted to total analyte amounts: Total amount (unit)=concentration (unit/volume) • urine volume

[2] = Multiple-ascending dose (MAD) study, once daily for 10 days in healthy subjects: plasma pharmacokinetics; type: in vivo, human; settings: for AUC extrap / CLss/F / RAUC (accumulation ratio AUC0-tau/AUC0-24h) / RCmax (accumulation ratio Cmax, D10/Cmax, D1) / AUC(0-t) / Cmax / AUC(0-inf) / AUC / Vd/F / half-life: mean (CV %); for AUC(0-t): read-out: AUC0-24 h; for AUC: read-out: AUC0-tau; for Vd/F: read-out: Vss/F; for half-life: read-out: t½ (converted)
Protocol: This was a randomized, double-blind study to assess the safety, tolerability, PK, and PD of multiple oral doses of (R)-compound 1 when administered to healthy adult subjects. The study consisted of 5 cohorts, with up to 12 subjects per cohort. Subjects were randomized in a 3:1 ratio to (R)-compound 1 or placebo once daily for 10 days as follows: • Cohort 1: 2.5 mg (R)-compound 1 or matching placebo (low salt diet in 9 subjects receiving (R)-compound 1 and 3 subjects receiving placebo); • Cohort 2: 5.0 mg (R)-compound 1 or matching placebo (low salt diet in 9 subjects receiving (R)-compound 1 and 3 subjects receiving placebo); • Cohort 3: 1.5 mg (R)-compound 1 or matching placebo (normal salt diet in 9 subjects receiving (R)-compound 1 and 3 subjects receiving placebo); • Cohort 4: 2.5 mg (R)-compound 1 or matching placebo (normal salt diet in 6 subjects receiving (R)-compound 1 and 2 subjects receiving placebo); and • Cohort 5: 0.5 mg (R)-compound 1 or matching placebo (normal salt diet in 9 subjects receiving (R)-compound 1 and 3 subjects receiving placebo).
as §1
Study subjects were dosed with (R)-compound 1 (oral drinking solution) or matching placebo. The doses of (R)-compound 1 administered were 2.5 and 5.0 mg with a low salt diet and 1.5, 2.5, and 0.5 mg with a normal salt diet.
(only for (R)-compound 1).

[3] = 0.5 mg QD, normal salt diet, Day 10
[4] = 1.5 mg QD, normal salt diet, Day 10
[5] = 2.5 mg QD, low salt diet, Day 10
[6] = 2.5 mg QD, normal salt diet, Day 10
[7] = 5.0 mg QD, low salt diet, Day 10
[8] = human, plasma, oral, 0.5 mg, 0.5 mg QD, normal salt diet, Day 10
[9] = human, plasma, oral, 1.5 mg, 1.5 mg QD, normal salt diet, Day 10
[10] = human, plasma, oral, 2.5 mg, 2.5 mg QD, low salt diet, Day 10
[11] = human, plasma, oral, 2.5 mg, 2.5 mg QD, normal salt diet, Day 10
[12] = human, plasma, oral, 5 mg, 5.0 mg QD, low salt diet, Day 10

## CCC(=O)N[C@@H]1CCCc2c(-c3ccc4c(c3)CCC(=O)N4C)cncc21 [(R)-Compound 1, (R)—N-(4-(1-methyl-2-oxo-1,2,3,4-tetrahydroquinolin-6-yl)-5,6,7,8-tetrahydroisoquinolin-8-yl)propionamide]
[1]
  bioavailability: 97.9%
Aldosterone synthase; 0.5 mg QD, normal salt diet
  Urine aldosterone (ng), Percent change from baseline (Day −1) to Day 1 0-24 hr: −23.7290%
  Urine aldosterone (ng), Percent change from baseline (Day −1) to Day 10 0-24 hr: 4.2728%
  Urine tetrahydroaldosterone (ng), Percent change from baseline (Day −1) to Day 1 0-24 hr: −12.0171%
  Urine tetrahydroaldosterone (ng), Percent change from baseline (Day −1) to Day 10 0-24 hr: 11.0511%
Aldosterone synthase; 1.5 mg QD, normal salt diet
  Urine aldosterone (ng), Percent change from baseline (Day −1) to Day 1 0-24 hr: −67.6229%
  Urine aldosterone (ng), Percent change from baseline (Day −1) to Day 10 0-24 hr: −65.6831%
  Urine tetrahydroaldosterone (ng), Percent change from baseline (Day −1) to Day 1 0-24 hr: −47.0556%
  Urine tetrahydroaldosterone (ng), Percent change from baseline (Day −1) to Day 10 0-24 hr: −60.9034%
Aldosterone synthase; 2.5 mg QD, low salt diet
  Urine aldosterone (ng), Percent change from baseline (Day −1) to Day 1 0-24 hr: −61.1877%
  Urine aldosterone (ng), Percent change from baseline (Day −1) to Day 10 0-24 hr: −19.3985%
  Urine tetrahydroaldosterone (ng), Percent change from baseline (Day −1) to Day 1 0-24 hr: −26.0540%
  Urine tetrahydroaldosterone (ng), Percent change from baseline (Day −1) to Day 10 0-24 hr: −6.2967%
Aldosterone synthase; 2.5 mg QD, normal salt diet
  Urine aldosterone (ng), Percent change from baseline (Day −1) to Day 1 0-24 hr: −71.7141%
  Urine aldosterone (ng), Percent change from baseline (Day −1) to Day 10 0-24 hr: −50.7592%
  Urine tetrahydroaldosterone (ng), Percent change from baseline (Day −1) to Day 1 0-24 hr: −59.6517%
  Urine tetrahydroaldosterone (ng), Percent change from baseline (Day −1) to Day 10 0-24 hr: −55.1771%
Aldosterone synthase; 5.0 mg QD, low salt diet
  Urine aldosterone (ng), Percent change from baseline (Day −1) to Day 1 0-24 hr: −83.5768%
  Urine tetrahydroaldosterone (ng), Percent change from baseline (Day −1) to Day 1 0-24 hr: −67.5905%
  Urine tetrahydroaldosterone (ng), Percent change from baseline (Day −1) to Day 10 0-24 hr: −64.5164%
[2]; [3]
  AUC extrap: 6.325 (42.2) %
  CLss/F: 3.421 (29.4) L/h
[2]; 0.5 mg QD, normal salt diet
  RAUC (accumulation ratio AUC0-tau/AUC0-24h): 1.960 (13.9)
  RCmax (accumulation ratio Cmax, D10/Cmax, D1): 1.827 (14.2)
[2]; [4]
  AUC extrap: 6.106 (65.9) %
  CLss/F: 3.350 (27.5) L/h
[2]; 1.5 mg QD, normal salt diet
  RAUC (accumulation ratio AUC0-tau/AUC0-24h): 2.307 (13.8)
  RCmax (accumulation ratio Cmax, D10/Cmax, D1): 2.132 (11.2)
[2]; [5]
  AUC extrap: 4.519 (45.4) %
  CLss/F: 3.277 (16.1) L/h
[2]; 2.5 mg QD, low salt diet
  RAUC (accumulation ratio AUC0-tau/AUC0-24h): 2.147 (7.4)
  RCmax (accumulation ratio Cmax, D10/Cmax, D1): 1.965 (15.1)
[2]; [6]
  AUC extrap: 3.832 (85.6) %
  CLss/F: 4.315 (36.9) L/h
[2]; 2.5 mg QD, normal salt diet
  RAUC (accumulation ratio AUC0-tau/AUC0-24h): 1.994 (22.3)
  RCmax (accumulation ratio Cmax, D10/Cmax, D1): 1.706 (34.1)
[2]; [7]
  AUC extrap: 5.397 (52.6) %
  CLss/F: 3.207 (26.3) L/h
[2]; 5.0 mg QD, low salt diet
  RAUC (accumulation ratio AUC0-tau/AUC0-24h): 2.507 (10.2)
  RCmax (accumulation ratio Cmax, D10/Cmax, D1): 2.424 (13.6)
[2]; human, plasma, oral, 0.5 mg, 0.5 mg QD, normal salt diet, Day 1
  AUC(0-t): 79.5 ng·h/mL
[2]; human, plasma, oral, 0.5 mg, 0.5 mg QD, normal salt diet, Day 1, read-out: Cmax, D 1
  Cmax: 5.36 ng/mL
[2]; human, plasma, oral, 0.5 mg, 0.5 mg QD, normal salt diet, Day 1, median (min, max), read-out: Tmax, D 1
  Tmax: 2 h
[2]; [8]
  AUC(0-inf): 351 ng·h/mL
  AUC: 155 ng·h/mL
  Vd/F: 152 L
[2]; human, plasma, oral, 0.5 mg, 0.5 mg QD, normal salt diet, Day 10, read-out: Cmax, D 10
  Cmax: 9.72 ng/mL
[2]; human, plasma, oral, 0.5 mg, 0.5 mg QD, normal salt diet, Day 10, median (min, max), read-out: Tmax, D 10
  Tmax: 2 h
[2]; human, plasma, oral, 1.5 mg, 1.5 mg QD, normal salt diet, Day 1
  AUC(0-t): 205 ng·h/mL
[2]; human, plasma, oral, 1.5 mg, 1.5 mg QD, normal salt diet, Day 1, median (min, max), read-out: Tmax, D 1
  Tmax: 2.5 h
[2]; [9]
  AUC(0-inf): 1110 ng·h/mL
  AUC: 480 ng·h/mL
  Vd/F: 137 L
[2]; human, plasma, oral, 1.5 mg, 1.5 mg QD, normal salt diet, Day 10, median (min, max), read-out: Tmax, D 10
  Tmax: 2.5 h
[2]; human, plasma, oral, 2.5 mg, 2.5 mg QD, low salt diet, Day 1
  AUC(0-t): 366 ng·h/mL
[2]; human, plasma, oral, 2.5 mg, 2.5 mg QD, low salt diet, Day 1, median (min, max), read-out: Tmax, D 1
  Tmax: 3 h
[2]; [10]
  AUC(0-inf): 1490 ng·h/mL
  AUC: 783 ng·h/mL
  Vd/F: 135 L
[2]; human, plasma, oral, 2.5 mg, 2.5 mg QD, low salt diet, Day 10, read-out: Cmax, D 10
  Cmax: 54 ng/mL
[2]; human, plasma, oral, 2.5 mg, 2.5 mg QD, low salt diet, Day 10, median (min, max), read-out: Tmax, D 10
  Tmax: 2 h
[2]; human, plasma, oral, 2.5 mg, 2.5 mg QD, normal salt diet, Day 1
  AUC(0-t): 344 ng·h/mL
[2]; human, plasma, oral, 2.5 mg, 2.5 mg QD, normal salt diet, Day 1, median (min, max), read-out: Tmax, D 1
  Tmax: 3 h
[2]; [11]
  AUC(0-inf): 1460 ng·h/mL
  AUC: 677 ng·h/mL
  Vd/F: 150 L
[2]; human, plasma, oral, 2.5 mg, 2.5 mg QD, normal salt diet, Day 10, median (min, max), read-out: Tmax, D 10
  Tmax: 3 h
[2]; human, plasma, oral, 5 mg, 5.0 mg QD, low salt diet, Day 1
  AUC(0-t): 658 ng·h/mL
[2]; [12]
  AUC(0-inf): 3480 ng·h/mL
  AUC: 1660 ng·h/mL
  Vd/F: 134 L
[2]; human, plasma, oral, 5 mg, 5.0 mg QD, low salt diet, Day 10, median (min, max), read-out: Tmax, D 10
  Tmax: 3 h
[2]; human, plasma, oral, 0.5 to 5 mg QD, read-out: median Tmax, range across treatment groups
  Tmax: 0.98 to 4 h
[2]; human, plasma, oral, 1.5 mg QD, normal salt diet, Day 10
  half-life: 29.9 h
[2]; human, plasma, oral, 2.5 mg QD, normal salt diet, Day 10
  half-life: 25.5 h
[2]; human, plasma, oral, 5.0 mg QD, low salt diet, Day 10
  half-life: 29.4 h
[2]; human, plasma, oral, approximately, read-out: mean t½, range
  half-life at 10 days: 26 to 31 h
[2]; oral administration
  time after dosing within which peak concentrations typically observed: ≤ 4 h

Reference: patent US20240277698A1, “METHODS OF USING ALDOSTERONE SYNTHASE INHIBITORS” (CINCOR PHARMA, INC., priority 2021, published 2024)
